Measured values from PubChem BioAssay (NCI).
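Grown in 96-well plates, cells were treated for 48 hours with each compound at five concentrations. Insufficient inhibition: endpoint recorded as highest concentration tested. The concentration for 50% growth inhibition is given as GI50. Definition used: TGI = concentration required for complete inhibition of growth.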

How the values were obtained:
Assay in all cases: NCI tumour cell line growth inhibition, 48 h
[1] = test system: SK-MEL-2 melanoma
[2] = test system: IGROV1 ovarian
[3] = test system: HOP-92 NSCLC
[4] = test system: SNB-75 CNS
[5] = test system: CAKI-1 renal
[6] = test system: MDA-MB-231 breast
[7] = test system: DU-145 prostate
[8] = test system: A498 renal
[9] = test system: HOP-62 NSCLC
[10] = test system: UO-31 renal
[11] = test system: NCI-H522 lung
[12] = test system: MDA-MB-435
[13] = test system: OVCAR-5 ovarian
[14] = test system: LOX IMVI melanoma
[15] = test system: K-562 leukemia
[16] = test system: NCI-H226 lung
[17] = test system: T-47D breast
[18] = test system: PC-3 prostate
[19] = test system: M14 melanoma
[20] = test system: SNB-19 CNS
[21] = test system: HT29 colon
[22] = test system: HS 578T breast
[23] = test system: SK-OV-3 ovarian
[24] = test system: ACHN renal
[25] = test system: HCC-2998 colon
[26] = test system: SF-295 CNS
[27] = test system: HCT-15 colon
[28] = test system: CCRF-CEM leukemia
[29] = test system: EKVX NSCLC
[30] = test system: NCI/ADR-RES ovarian
[31] = test system: NCI-H460 lung
[32] = test system: SF-268 CNS
[33] = test system: MALME-3M melanoma
[34] = test system: SR leukemia
[35] = test system: KM12 colon
[36] = test system: MOLT-4 leukemia
[37] = test system: OVCAR-3 ovarian
[38] = test system: SK-MEL-28 melanoma
[39] = test system: SW-620 colon
[40] = test system: 786-0 renal
[41] = test system: COLO 205 colon
[42] = test system: TK-10 renal
[43] = test system: HCT-116 colon
[44] = test system: UACC-257 melanoma
[45] = test system: OVCAR-4 ovarian
[46] = test system: RPMI-8226 leukemia
[47] = test system: RXF 393 renal
[48] = test system: SK-MEL-5 melanoma
[49] = test system: NCI-H23 lung
[50] = test system: OVCAR-8 ovarian
[51] = test system: HL-60(TB) leukemia
[52] = test system: UACC-62 melanoma
[53] = test system: BT-549 breast
[54] = test system: U251 CNS
[55] = test system: A549 NSCLC
[56] = test system: MCF7 breast
[57] = test system: SF-539 CNS
[58] = test system: SN12C renal

## Cc1ccc(SC[C@@]2(C(F)F)NC(=O)NC2=O)cc1
[1]
  TGI: > 100 µM
[2]
  TGI: > 100 µM
[3]
  TGI: > 100 µM
[4]
  TGI: > 100 µM
[5]
  TGI: > 100 µM
[6]
  TGI: > 100 µM
[7]
  TGI: > 100 µM
[8]
  TGI: > 100 µM
[9]
  TGI: > 100 µM
[10]
  TGI: > 100 µM
[11]
  TGI: > 100 µM
[12]
  TGI: > 100 µM
[13]
  TGI: > 100 µM
[14]
  TGI: > 100 µM
[15]
  TGI: > 100 µM
[16]
  TGI: > 100 µM
[17]
  TGI: > 100 µM
[18]
  TGI: > 100 µM
[19]
  TGI: > 100 µM
[20]
  TGI: > 100 µM
[21]
  TGI: > 100 µM
[22]
  TGI: > 100 µM
[23]
  TGI: > 100 µM
[24]
  TGI: > 100 µM
[25]
  TGI: > 100 µM
[26]
  TGI: > 100 µM
[27]
  TGI: > 100 µM
[28]
  TGI: > 100 µM
[29]
  TGI: > 100 µM
[30]
  TGI: > 100 µM
[31]
  TGI: > 100 µM
[32]
  TGI: > 100 µM
[33]
  TGI: > 100 µM
[34]
  TGI: > 100 µM
[35]
  TGI: > 100 µM
[36]
  TGI: > 100 µM
[37]
  TGI: > 100 µM
[38]
  TGI: > 100 µM
[39]
  TGI: > 100 µM
[40]
  TGI: > 100 µM
[41]
  TGI: > 100 µM
[42]
  TGI: > 100 µM
[43]
  TGI: > 100 µM
[44]
  TGI: > 100 µM
[45]
  TGI: > 100 µM
[46]
  TGI: > 100 µM
[47]
  TGI: > 100 µM
[48]
  TGI: > 100 µM
[49]
  TGI: > 100 µM
[50]
  TGI: > 100 µM
[51]
  TGI: > 100 µM
[52]
  TGI: > 100 µM
[53]
  TGI: > 100 µM
[54]
  TGI: > 100 µM
[55]
  TGI: > 100 µM

## COc1cccc(C2C(C#N)=C(N)Oc3c2ccc2ccccc32)c1 (centres undefined)
[1]
  GI50: 0.0588 µM
  TGI: 16.5 µM
[2]
  GI50: 0.0205 µM
  TGI: 14.3 µM
[3]
  GI50: < 0.0271 µM
  TGI: 7.78 µM
[4]
  GI50: < 0.0151 µM
  TGI: 15.1 µM
[5]
  GI50: < 0.01 µM
  TGI: 14 µM
[56]
  GI50: < 0.01 µM
  TGI: 12.8 µM
[6]
  GI50: 0.0433 µM
  TGI: 16.3 µM
[7]
  GI50: 0.034 µM
  TGI: 1.43 µM
[8]
  GI50: 0.0108 µM
  TGI: 13.6 µM
[9]
  GI50: 0.0203 µM
  TGI: 16.2 µM
[57]
  GI50: 0.0166 µM
  TGI: 0.0695 µM
[10]
  GI50: 0.054 µM
  TGI: 14.3 µM
[11]
  GI50: < 0.01 µM
[12]
  GI50: < 0.01 µM
[13]
  GI50: 0.0801 µM
  TGI: 19.8 µM
[14]
  GI50: < 0.0164 µM
  TGI: 10.8 µM
[15]
  GI50: < 0.01 µM
  TGI: > 44 µM
[16]
  GI50: 0.0208 µM
  TGI: 1 µM
[18]
  GI50: 0.0119 µM
  TGI: 15.5 µM
[19]
  GI50: < 0.012 µM
  TGI: 13.3 µM
[20]
  GI50: 0.0322 µM
  TGI: 20.5 µM
[21]
  GI50: 0.0926 µM
  TGI: 4.71 µM
[22]
  GI50: < 0.0133 µM
  TGI: 15.1 µM
[23]
  GI50: 0.0431 µM
  TGI: 18.3 µM
[24]
  GI50: < 0.01 µM
  TGI: 13.4 µM
[25]
  GI50: 0.0355 µM
  TGI: 1.1 µM
[26]
  GI50: < 0.01 µM
  TGI: 10.7 µM
[27]
  GI50: < 0.01 µM
  TGI: 10.2 µM
[28]
  GI50: 0.0353 µM
  TGI: 18.2 µM
[29]
  GI50: 0.0617 µM
  TGI: 19.6 µM
[30]
  GI50: < 0.01 µM
  TGI: 0.391 µM
[31]
  GI50: 0.0246 µM
  TGI: 1.18 µM
[32]
  GI50: 0.0315 µM
  TGI: 10.5 µM
[34]
  GI50: < 0.01 µM
  TGI: > 66.7 µM
[35]
  GI50: < 0.0116 µM
  TGI: 2.26 µM
[36]
  GI50: 0.0409 µM
  TGI: 17.8 µM
[37]
  GI50: < 0.0144 µM
  TGI: 0.0439 µM
[38]
  GI50: 2.31 µM
  TGI: 24.5 µM
[39]
  GI50: < 0.015 µM
  TGI: 17.8 µM
[40]
  GI50: 0.0364 µM
  TGI: 12.3 µM
[41]
  GI50: 0.132 µM
  TGI: 0.639 µM
[42]
  GI50: 5.71 µM
  TGI: 27.3 µM
[43]
  GI50: < 0.0128 µM
  TGI: 3.42 µM
[44]
  GI50: 0.901 µM
  TGI: 32.8 µM
[45]
  TGI: 18.6 µM
[46]
  GI50: < 0.019 µM
  TGI: 3.22 µM
[47]
  GI50: < 0.0161 µM
  TGI: 0.975 µM
[48]
  GI50: < 0.0185 µM
  TGI: 0.108 µM
[49]
  GI50: 0.026 µM
  TGI: 6.74 µM
[50]
  GI50: 0.0346 µM
  TGI: 19.2 µM
[51]
  GI50: 0.0244 µM
  TGI: 0.0629 µM
[52]
  GI50: < 0.01 µM
  TGI: 19.8 µM
[53]
  GI50: 0.029 µM
  TGI: 12.1 µM
[58]
  GI50: 0.0406 µM
  TGI: 13.5 µM
[54]
  GI50: 0.0213 µM
  TGI: 11.1 µM
[55]
  GI50: 0.0232 µM
  TGI: 17.6 µM
